Results: US9833486B2, “Compositions comprising selenium and use of same for the treatment and prevention of disease or conditions associated with mitochondrial dysfunction” (ALLTECH, INC., priority 2013, dated 2017)
“And” between values parts separate entries of the source, which are not always exact repeats. Equal entries are not always repeated. “Also recorded” adds a separate entry of the source. *1 amine or outer side, *2 acyl side, *3 side chain or, on linkers, in order; H or OH if unused. Where a SMILES comes first, the peptide text is derived from it. Bridges are numbered along the chain shown (N, C = ends). Roman numbers before positions name the chains, in order. [ ]: non-standard residue; d: D form. γGlu = O=C(O)[C@H](CCC(=O)[*:2])N[*:1]; Sec = N[C@@H](C[SeH])C(=O)O

Experiments:
[1] = Oxygen radical absorbance capacity (ORAC) antioxidant assay; settings: Trolox Equivalents; singly or in combination
Description: Briefly, samples of selenium containing compounds (e.g., identified in Example 1) were analyzed using the Trolox assay kit, according to the manufacturer's instructions. Compounds were tested singly or in combination (at concentrations ranging from 0.05 to 5 μM) to examine for potential synergies, antagonisms or purely additive effects.

[2] = tested on: rat brain purified mitochondria; assay: Mitochondrial bioenergetics, oxygen consumption rates (Seahorse flux analyzer); format: biochemical; set-up: key to Trend of effect on mitochondrial bioenergetics: 1: Positive Trend; 2: Positive/Negative trend; 3: Negative Trend; 4: No Change; settings: for Trend of effect on mitochondrial bioenergetics: Table 7; for STATE V (State VFCCP, complex I dependent maximum respiratory capacity) / STATE Vsucc (complex II dependent maximum respiratory capacity) / STATE III (OCR, ATP synthesis): rat brain purified mitochondria 5 μg/well; for STATE V (State VFCCP, complex I dependent maximum respiratory capacity) / STATE Vsucc (complex II dependent maximum respiratory capacity) / STATE III (OCR, ATP synthesis) / STATE III % change / STATE V % change / STATE Vsucc % change / Effect on mitochondrial activity / bioenergetics profile (in words): 500 ppb; for STATE V (State VFCCP, complex I dependent maximum respiratory capacity): CTRL 182.1; for STATE Vsucc (complex II dependent maximum respiratory capacity): CTRL 350.1; for STATE III (OCR, ATP synthesis): CTRL 432.6; for STATE III % change / STATE V % change / STATE Vsucc % change: vs control; for STATE III % change / STATE V % change / STATE Vsucc % change / Effect on mitochondrial activity / bioenergetics profile (in words): Seahorse
Description: Mitochondria isolated from rat brain were chosen for this purpose for a number of reasons, including a) the ease with which mitochondria can be isolated from soft tissue, such as brain and b) the fact that brain tissue has a high demand for glucose and oxygen.
Experiments were conducted as follows: a variety of concentrations of selenium containing compounds were tested ranging from low (50 ppb), mid (500 ppb) and high (1 ppm). […] Adult rat brain ficoll purified mitochondria were isolated and incubated with the individual selenium containing compounds for 30 minutes at 37 C prior to being loaded into a Seahorse Biosciences flux analyzer in triplicate. OCR (Oxygen Consumption Rates) parameters were measured in three respiratory states including ATP synthesis (State III), Complex I dependent (NADH-driven) Maximum Respiratory Capacity (State VFCCP) and Complex II (FADH-driven) dependent Maximum Respiratory Capacity (State Vsucc). Sea Horse assay was performed as described (See, e.g., Sauerbeck et al., J Neurosci Methods. 2011 May 15; 198(1): 36-43; Seahorse XF, Seahorse Bioscience Inc).

mice = assay: Expression of oxidative phosphorylation (OXPHOS) molecules in liver; format: in vivo, mouse
Description: Utilizing the animal model described in Example 2, experiments were conducted to analyze the expression of molecules that regulate oxidative phosphorylation (OXPHOS) in the liver of subjects administered a composition comprising selenium.

mitochondria = assay: Mitochondrial respiration by oxytherm (Clark-type electrode); format: biochemical, rat; settings: 60 μg mitochondrial protein, 500 ppb, 30 minutes
Description: The bioactivities of selenium containing peptide LVSe-MR (C22H44N7O5Se) (#6) and methylselenoadenosine (C11H15N5O3Se) (#9) were analyzed utilizing oxytherm (Clark-type electrode) (See, e.g., Chance and Williams, J Biol Chem, 1955, 217, 383-393; Sullivan et al., J. Bioenerg. Biomembr. 36, 353-356.). Oxytherm analysis allows the determination of oxygen uptake or evolution measurements across a broad range of applications including mitochondrial and cellular respiration. For this experiment, 60 μg mitochondrial protein was co-incubated with either compound LVSe-MR (C22H44N7O5Se) or methylselenoadenosine (500 ppb) or their corresponding equivalent concentrations of respective controls (LVMR and methylthioadenosine, respectively) for 30 minutes prior to injection into the oxytherm chamber. Mitochondrial activity (measured and presented as the rate of mitochondrial respiration observed as % change in nmols O2/min/mg of mitochondrial protein) was measured in the presence of each compound.

Complex IV = Complex IV enzyme activity in isolated cortical mitochondria; format: biochemical, rat; settings: 0, 50, 500, 1000 PPB
mitochondrial Complex I = assay: Mitochondrial Complex I activity in isolated cortical mitochondria; format: biochemical, rat; settings: 0, 50, 500, 1000 PPB
Description: (§1) In order to measure pyruvate dehydrogenase complex (PDHC) activity as well as mitochondrial Complex I activity, cortical mitochondria were isolated from adult SD rats using a ficoll gradient method. Methylselenoadenosine was tested at four concentration ranges (0, 50, 500 and 1000 PPB). All assays were done in triplicate with co-incubation of the individual compounds with mitochondria (60 μg mitochondrial protein/well) in 100 μl assay system using standard techniques in a 96-well fluorescence plate reader.

[3] = tested on: pyruvate dehydrogenase complex (PDHC); assay: PDHC enzyme activity in isolated cortical mitochondria; format: biochemical, rat
Description: as §1

| Molecule | TE Value [1] | Trend of effect on mitochondrial bioenergetics [2] | STATE V (State VFCCP, complex I dependent maximum respiratory capacity) [2] | STATE Vsucc (complex II dependent maximum respiratory capacity) [2] | STATE III (OCR, ATP synthesis) [2] | STATE III % change [2] | STATE V % change [2] | STATE Vsucc % change [2] | Effect on mitochondrial activity / bioenergetics profile (in words) [2] | further results |
| --- | --- | --- | --- | --- | --- | --- | --- | --- | --- | --- |
| C[Se]CC[C@H](N)C(=O)O [#4, L-Selenomethionine] | 1.228 TE | – | – | – | – | – | – | – | – | – |
| N[C@@H](CCC(=O)N[C@@H](C[Se][Se]C[C@H](NC(=O)CC[C@H](N)C(=O)O)C(=O)NCC(=O)O)C(=O)NCC(=O)O)C(=O)O [#8, Selenoglutathione dimer] (I: γGlu-[Sec]-Gly-OH / II: γGlu-[Sec]-Gly-OH; diselenide I:1-II:1) | – | #8^4 | 192.3 | 371.0 | 424.0 | −2.1% | 5.7% | 6.0% | – | – |
| N[C@@H](CCC(=O)O)C(=O)N[C@@H](CS)C(=O)O [#30, Glutamylcysteine, reference compound] (H-Glu-Cys-OH) | – | #30^2 | 153.8 | 305.4 | 423.2 | −2.3% | −15.5% | −12.7% | – | – |
| C[Se]CC[C@H](N)C(=O)O [selenomethionine] | – | – | – | – | – | – | – | – | – | expression of ATP synthase (mice): significant increase; expression of ATPase inhibitory factor 1 (mice): significantly reduced; expression of ATPase, H+ transporting lysosomal, V1 subunit H (mice): significantly reduced; expression of ATPase, H+ transporting, V1 subunit A (mice): significantly reduced; expression of cytochrome c oxidase, subunit Va (mice): significant increase; regulation of liver specific mitochondrial activity, compared with selenium enriched yeast (mice): significantly less effective |
| Glutamylselenocysteine dimer [#10] | – | #10^3 | 112.7 | 254.4 | 352.1 | −18.7% | −38.1% | −27.3% | negative effect | decreased ATP synthesis (State III) ([2]; decrease vs control): ~19% |
| Methylselenoadenosine [#9] | 0.722 TE | #9^1 | 210.3^1 | 437.1^1 | 507.8^1 | 17.3% and 17.3^1% | 15.6% and 15.6^1% | 25% and 24.9^1% | positive increases in all three states of respiration; also recorded: remarkably increase mitochondrial bioenergetics profiles | State III increase compared to control (mitochondria): 29.9%; State VFCCP increase compared to control (mitochondria): 17.3%; State Vsucc increase compared to control (mitochondria): 15.3%; Complex IV enzyme activity (in words) (Complex IV): No changes; Complex I activity (in words) (mitochondrial Complex I): increased; PDHC activity (in words) ([3]; 0, 50, 500, 1000 PPB): increased; enhanced PDHC enzyme activity ([3]; 0-1000 PPB, depending upon the concentration, p<0.05 at 1000 PPB): 30-57% |
